Reference: patent US10568992B2, “Peptides for supporting endothelial progenitor cell rolling and capture and endothelialization of biomaterials” (Auburn University, priority 2015, dated 2020)
Bridges are numbered along the chain shown (N, C = ends). Where no end group is shown, it is not given here.

Tests used:
[1] = tested on: endothelial colony forming cells (ECFCs); assay: ECFC rolling on peptide-grafted PEG hydrogels under shear (parallel plate flow chamber); type: cell-based; design: ECFC rolling velocity: unit not given here; settings: for ECFC rolling velocity: 0.7 μmol/mL PEG-peptide grafted hydrogel; for ECFC rolling velocity / ECFC rolling velocities / rolling velocities of ECFCs: mean±SD (n=3); for ECFC rolling velocities: FIG. 15A; for support of ECFC rolling (velocity below rolling cutoff, 40% of average fluid velocity): shear rates 20-120 s^−1; for rolling velocities of ECFCs: FIG. 13A
Protocol: (§1) Umbilical cord blood ECFCs were used in this study. To create the peptide-grafted PEG surfaces, PEG-DA was first photopolymerized to form a hydrogel base. Peptides were conjugated to acryloyl-PEG-SVA to produced the PEG-peptides, and 0.7 μmol/mL of each PEG-peptide was grafted onto the surface of the PEG hydrogel base. Shear experiments were performed to examine ECFC rolling and adhesion on the hydrogel surfaces. Using a Glycotech parallel plate flow chamber, the ECFC cell suspension was sheared over the hydrogels at shear rates of 20 s^−1, 40 s^−1, 80 s^−1, and 120 s^−1. Cell rolling events were recorded at 70 fps using a high speed camera. Cell tracking was performed using ImageJ and Matlab to determine rolling velocities. Finally ECFC retention on the RGDSQ ID NO:3)-grafted PEG hydrogels was quantified under superphysiological shear stress.
To form the PEG-peptide grafting solution, the acryloyl-PEG-peptide was first dissolved in sterile PBS at the desired concentration (ranging from 0.7 mM to 5.6 mM) and the photoinitiator was added as described above. After each PEGDA hydrogel was photocrosslinked, the top plate of the mold was removed. The hydrogels were rinsed with sterile PBS and briefly dried with a stream of nitrogen to remove excess PBS on the surface of the hydrogel. The mold's 0.5 mm PDMS spacers were replaced with 0.7 mm PDMS spacers and a clean glass slide was placed on top. Then the PEG-peptide grafting solution was injected between the hydrogel and the new piece of glass and photocrosslinked to the top of the PEGDA hydrogel under the UV lamp for 7 min. PEG-peptide grafted hydrogels were then rinsed and swollen in sterile PBS for experiments.
To identify whether a cell is rolling, the upper velocity cutoff was determined by flowing ECFCs across the surface of control PEG hydrogels at different shear rates. Using video recordings, ECFC rotation on the focal plane of PEG hydrogels was observed. […] Therefore, based on these experiments, 40% of average fluid flow velocity was used as the cutoff velocity for cell rolling as is shown in FIG. 12.

[2] = tested on: endothelial colony forming cells (ECFCs); assay: ECFC capture on peptide-grafted PEG hydrogels under shear; type: cell-based; settings: 20 s^−1; for ECFCs captured (captured cells normalized to total cells interacting with hydrogel surface): 2 min recordings, total 0.7 μmol/mL peptide grafted (combinations 0.35/0.35 μmol/mL), mean±SD (n=3); for ECFC capture events (in words): low shear rate
Protocol: as §1
Cell capture events were consistently observed on CRRETAWAC (SEQ ID NO:1)- and PRb (SEQ ID NO:18)-grafted hydrogels at 20 s^−1. Number of captured cells were counted and normalized to the total number of cells interacted with each hydrogel surface. During each of the 2 min recordings, 3.74%±1.0% of ECFCs were captured on CRRETAWAC (SEQ ID NO:1)-grafted hydrogels and 1.14%±0.2% of ECFCs were captured on PRb-grafted hydrogels FIG. 9. Since both of these novel peptides are specific for the integrin α5β1, the result of this study strongly supports that α5β1 is responsible for cell capture.
To further evaluate the potential use of CRRETAWAC (SEQ ID NO:1) and PRb in the ECFC capture for endothelialization, ECFC rolling on hydrogels that were grafted with combinations of CRRETAWAC (SEQ ID NO:1) or PRb (SEQ ID NO:18) with REDV (SEQ ID NO:2) was assessed. In order to maintain consistent grafting of peptides, a final concentrations of 0.7 μmol/mL of equal molar mixtures of acryloyl-PEG-peptides precursors were grafted onto the surface of PEG hydrogels.

[3] = tested on: endothelial colony forming cells (ECFCs); assay: Adhesion of ECFCs on peptide-grafted PEG hydrogels (static); type: cell-based; settings: for ECFC adhesion and spreading: after 24 hours; for ECFC monolayer formation and cobble stone morphology: peptide-grafted hydrogels
Excerpt: ECFC adhesion on (A) CRRETAWAC (SEQ ID NO:1)-(B) PRb ([…]), —(C) P11 (SEQ ID NO: 11)-grafted PEG hydrogels.
Adhesion of ECFCs on CRRETAWAC (SEQ ID NO:1)-, PRb (SEQ ID NO:18)-, P11 (SEQ ID NO: 11)-grafted hydrogels was first accessed. […] On P11-grafted hydrogels, ECFCs aggregated to form adherent cell clumps. […] Without the ability to support cell spreading and the formation of monolayer, P11 alone could not support ECFC endothelialization which is critical for healing damaged and diseased blood vessels.

integrin α5β1 = integrin α5β1 (Homo sapiens, UniProt P05556+P08648); settings: among the non-RGD containing peptides of the library; cited from earlier work
αvβ3 integrin = αvβ3 integrin (Homo sapiens, UniProt P05106+P06756); settings: among 12 HXXXHK hexapeptides; cited from earlier work
Sequence of αvβ3 integrin (P06756 31-889 limits assumed): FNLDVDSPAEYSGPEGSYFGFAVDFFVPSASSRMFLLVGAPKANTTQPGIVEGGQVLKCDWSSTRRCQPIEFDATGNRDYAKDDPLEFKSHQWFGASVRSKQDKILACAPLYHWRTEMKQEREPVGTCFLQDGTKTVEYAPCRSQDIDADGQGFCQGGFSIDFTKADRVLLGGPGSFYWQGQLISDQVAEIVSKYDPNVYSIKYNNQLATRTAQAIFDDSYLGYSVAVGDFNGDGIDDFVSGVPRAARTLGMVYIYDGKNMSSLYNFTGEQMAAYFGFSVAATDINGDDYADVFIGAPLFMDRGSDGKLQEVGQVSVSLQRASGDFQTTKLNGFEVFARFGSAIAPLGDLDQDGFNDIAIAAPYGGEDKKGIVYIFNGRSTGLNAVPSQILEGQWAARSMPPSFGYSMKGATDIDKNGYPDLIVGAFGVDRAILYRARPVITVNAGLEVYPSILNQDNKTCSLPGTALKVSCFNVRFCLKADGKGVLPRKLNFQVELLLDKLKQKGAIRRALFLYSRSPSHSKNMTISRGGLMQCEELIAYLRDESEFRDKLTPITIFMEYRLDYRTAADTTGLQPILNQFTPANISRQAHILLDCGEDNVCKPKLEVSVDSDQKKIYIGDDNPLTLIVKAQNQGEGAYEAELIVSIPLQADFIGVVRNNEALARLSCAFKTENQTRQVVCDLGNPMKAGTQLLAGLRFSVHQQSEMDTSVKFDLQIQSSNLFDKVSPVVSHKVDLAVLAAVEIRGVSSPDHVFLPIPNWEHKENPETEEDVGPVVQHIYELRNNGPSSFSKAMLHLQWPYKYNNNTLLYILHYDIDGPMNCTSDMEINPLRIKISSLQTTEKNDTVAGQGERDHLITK
Sequence of αvβ3 integrin (P06756 891-1048 partner limits assumed): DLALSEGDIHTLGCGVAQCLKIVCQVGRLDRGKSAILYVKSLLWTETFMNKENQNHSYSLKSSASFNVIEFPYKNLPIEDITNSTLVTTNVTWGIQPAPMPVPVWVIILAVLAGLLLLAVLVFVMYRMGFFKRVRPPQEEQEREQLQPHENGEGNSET
Sequence of αvβ3 integrin (P05106 27-788): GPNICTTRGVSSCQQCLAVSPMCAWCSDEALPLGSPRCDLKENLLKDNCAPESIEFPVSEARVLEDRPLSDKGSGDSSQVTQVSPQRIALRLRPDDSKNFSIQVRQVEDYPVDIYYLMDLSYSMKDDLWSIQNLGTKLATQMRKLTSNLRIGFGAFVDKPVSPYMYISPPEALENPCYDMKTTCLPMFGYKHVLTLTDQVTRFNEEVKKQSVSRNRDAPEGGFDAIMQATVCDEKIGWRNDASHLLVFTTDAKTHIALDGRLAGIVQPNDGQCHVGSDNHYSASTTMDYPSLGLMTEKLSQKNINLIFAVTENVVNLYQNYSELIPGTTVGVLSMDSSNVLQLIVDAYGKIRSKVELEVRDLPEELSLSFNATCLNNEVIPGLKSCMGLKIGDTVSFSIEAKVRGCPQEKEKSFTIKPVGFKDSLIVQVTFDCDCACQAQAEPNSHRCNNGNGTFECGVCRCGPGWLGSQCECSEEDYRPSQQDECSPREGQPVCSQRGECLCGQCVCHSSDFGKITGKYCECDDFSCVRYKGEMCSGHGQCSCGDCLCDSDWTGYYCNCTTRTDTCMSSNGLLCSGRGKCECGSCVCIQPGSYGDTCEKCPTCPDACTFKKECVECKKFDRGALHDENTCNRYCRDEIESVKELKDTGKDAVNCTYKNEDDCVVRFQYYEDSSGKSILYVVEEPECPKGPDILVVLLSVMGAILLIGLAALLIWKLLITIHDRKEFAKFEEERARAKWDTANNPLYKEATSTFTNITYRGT

Sequence of integrin α5β1 (P08648 42-894 limits assumed): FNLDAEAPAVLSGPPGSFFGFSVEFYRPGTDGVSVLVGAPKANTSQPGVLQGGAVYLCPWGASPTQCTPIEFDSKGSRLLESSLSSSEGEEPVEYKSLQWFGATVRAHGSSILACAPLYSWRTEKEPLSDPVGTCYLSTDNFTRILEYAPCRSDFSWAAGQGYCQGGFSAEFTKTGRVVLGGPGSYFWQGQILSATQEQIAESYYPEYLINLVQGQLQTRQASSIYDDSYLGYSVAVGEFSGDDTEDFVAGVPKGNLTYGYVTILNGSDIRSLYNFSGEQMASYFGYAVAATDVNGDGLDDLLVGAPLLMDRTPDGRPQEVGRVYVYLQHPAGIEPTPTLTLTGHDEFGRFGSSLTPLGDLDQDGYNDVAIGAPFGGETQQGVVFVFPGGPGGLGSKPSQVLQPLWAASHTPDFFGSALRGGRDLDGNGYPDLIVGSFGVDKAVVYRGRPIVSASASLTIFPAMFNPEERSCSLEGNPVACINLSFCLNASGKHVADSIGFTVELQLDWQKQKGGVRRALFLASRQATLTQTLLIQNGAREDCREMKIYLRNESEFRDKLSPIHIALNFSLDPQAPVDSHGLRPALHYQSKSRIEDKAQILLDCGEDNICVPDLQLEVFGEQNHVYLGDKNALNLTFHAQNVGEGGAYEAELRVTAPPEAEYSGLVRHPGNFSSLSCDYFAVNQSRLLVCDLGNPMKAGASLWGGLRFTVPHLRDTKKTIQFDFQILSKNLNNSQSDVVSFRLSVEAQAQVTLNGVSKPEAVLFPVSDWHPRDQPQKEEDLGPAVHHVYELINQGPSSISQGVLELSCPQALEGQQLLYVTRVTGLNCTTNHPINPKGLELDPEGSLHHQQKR
Sequence of integrin α5β1 (P08648 895-1049 partner limits assumed): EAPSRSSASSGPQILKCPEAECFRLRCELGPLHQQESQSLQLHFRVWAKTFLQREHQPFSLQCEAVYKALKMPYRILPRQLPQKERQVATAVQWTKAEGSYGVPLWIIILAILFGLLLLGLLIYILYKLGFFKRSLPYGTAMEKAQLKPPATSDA
Sequence of integrin α5β1 (P05556 21-798): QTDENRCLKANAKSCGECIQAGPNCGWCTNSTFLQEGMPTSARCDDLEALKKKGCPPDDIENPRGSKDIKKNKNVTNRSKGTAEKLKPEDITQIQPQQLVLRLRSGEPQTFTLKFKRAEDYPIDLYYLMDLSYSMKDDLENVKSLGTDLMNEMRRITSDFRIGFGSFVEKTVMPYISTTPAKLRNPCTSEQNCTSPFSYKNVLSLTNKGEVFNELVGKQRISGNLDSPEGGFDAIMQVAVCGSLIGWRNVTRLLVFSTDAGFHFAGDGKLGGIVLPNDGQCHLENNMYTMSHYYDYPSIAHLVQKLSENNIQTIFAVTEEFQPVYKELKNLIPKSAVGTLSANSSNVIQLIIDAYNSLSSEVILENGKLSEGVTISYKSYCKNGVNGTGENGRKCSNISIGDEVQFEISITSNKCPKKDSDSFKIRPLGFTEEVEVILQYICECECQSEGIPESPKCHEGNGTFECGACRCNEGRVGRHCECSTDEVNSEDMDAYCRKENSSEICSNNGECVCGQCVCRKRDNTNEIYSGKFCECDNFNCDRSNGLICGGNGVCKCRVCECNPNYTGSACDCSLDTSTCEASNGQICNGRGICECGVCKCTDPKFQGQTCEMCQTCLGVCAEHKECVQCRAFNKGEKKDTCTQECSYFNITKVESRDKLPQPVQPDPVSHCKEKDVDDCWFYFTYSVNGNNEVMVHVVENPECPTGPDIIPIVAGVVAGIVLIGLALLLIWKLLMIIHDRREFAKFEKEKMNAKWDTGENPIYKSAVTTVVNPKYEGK

Substance	ECFC rolling velocity ([1]; shear rate 20 1/s)	ECFC rolling velocity ([1]; shear rate 40 1/s)	ECFC rolling velocity ([1]; shear rate 80 1/s)	ECFC rolling velocity ([1]; shear rate 120 1/s)	ECFCs captured (captured cells normalized to total cells interacting with hydrogel surface) [2]	ECFC adhesion and spreading [3]	ECFC monolayer formation and cobble stone morphology [3]	affinity to α5β1 (integrin α5β1)	competition with fluorescently labeled VN for αvβ3 (αvβ3 integrin)	ECFC rolling velocities ([1]; 20 s^−1)	ECFC rolling velocities ([1]; 40 s^−1)	ECFC rolling velocities ([1]; 80 s^−1)	ECFC rolling velocities ([1]; 120 s^−1)	support of ECFC rolling (velocity below rolling cutoff, 40% of average fluid velocity) [1]	ECFC capture events (in words) [2]	rolling velocities of ECFCs ([1]; 20 s^−1)	rolling velocities of ECFCs ([1]; 40 s^−1)	rolling velocities of ECFCs ([1]; 80 s^−1)	rolling velocities of ECFCs ([1]; 120 s^−1)
CRRETAWAC (disulfide 1-9 (inferred); also: grafted on PEG hydrogel via acryloyl-PEG)	131.6	278.4 ± 28.6	550.6 ± 64.1	828.4 ± 82.7	3.74%	supported ECFC adhesion and spreading	able to form monolayer and maintain cobble stone morphology	highest affinity	–	–	–	–	–	–	–	–	–	–	–
HSDVHK [Peptide P11, synthesized as HSDVHKG]	127.5	251.0 ± 41.2	508.0 ± 86.5	787.6 ± 102.1	–	only able to support ECFC adhesion, but not spreading	not	–	most competitive for αvβ3	–	–	–	–	–	–	–	–	–	–
PHSRNSGSGSGSGSGRGDSG [PRb]	110.3	235.0 ± 36.1	485.7 ± 67.5	735.1 ± 102.6	1.14%	supported ECFC adhesion and spreading	able to form monolayer and maintain cobble stone morphology	–	–	–	–	–	–	–	–	–	–	–	–
REDV (also: PEG conjugate)	78.6	183.3 ± 43.4	353.8 ± 82.0	564.3 ± 177.0	–	–	not	–	–	79±4 μm s^−1	181±6 μm s^−1	357±6 μm s^−1	560±15 μm s^−1	supported ECFC rolling	does not support capture even at low shear rates	–	–	–	–
RGDS (also: PEG conjugate) [ubiquitous cell adhesion peptide]	102.2	218.7 ± 42.4	455.8 ± 86.7	739.7 ± 121.9	–	–	able to form monolayer and maintain cobble stone morphology	–	–	–	–	–	–	supported ECFC rolling at all shear rates	Some ECFC capture events were observed	103±3 μm/s	223±14 μm/s	469±38 μm/s	741±28 μm/s
RGES (also: PEG conjugate)	–	–	–	–	–	–	–	–	–	–	–	–	–	did not support ECFC rolling	–	–	–	–	–
YIGSRG (also: PEG conjugate)	103.2	223.2 ± 38.0	487.6 ± 72.5	737.0 ± 107.9	–	–	not	–	–	102±9 μm s^−1	223±22 μm s^−1	484±12 μm s^−1	740±10 μm s^−1	supported ECFC rolling	–	–	–	–	–
